Patent US20150139959A1 (priority 2009, published 2015)

Experiments:
Caco-2 cells = format: cell-based, Human
3T3 mouse fibroblasts = format: cell-based
[1] = 14-day daily gavage toxicity study, body and organ weights; settings: for Feed efficacy (Body weight gain/Food Consumption) / Final body weight: 14 days

Compound	MTT bioassay IC50 (95% Confidence Interval) (Caco-2 cells)	BrdU bioassay IC50 (95% Confidence Interval) (3T3 mouse fibroblasts)	Food Consumption during the 14 days ([1]; 25 mg/kg bw) [g]	Feed efficacy (Body weight gain/Food Consumption) ([1]; 25 mg/kg bw)	Final body weight ([1]; 25 mg/kg bw) [g]	Food Consumption during the 14 days ([1]; 100 mg/kg bw) [g]	Feed efficacy (Body weight gain/Food Consumption) ([1]; 100 mg/kg bw)	Final body weight ([1]; 100 mg/kg bw) [g]	Food Consumption during the 14 days ([1]; 2 mg/kg bw) [g]	Feed efficacy (Body weight gain/Food Consumption) ([1]; 2 mg/kg bw)
CC1=C[C@H]2O[C@@H]3[C@H](O)C[C@](C)([C@@]2(CO)[C@H](O)C1=O)[C@]31CO1 [3-epi-DON]	146 (100, 212) μg/mL	281 (156, 505) μg/mL	85.860	0.0475	21.390	85.760	0.0413	21.680	–	–
CC1=C[C@H]2O[C@@H]3[C@H](O)C[C@](C)([C@@]2(CO)[C@H](O)C1=O)[C@]31CO1 [DON, Deoxynivalenol, reference compound]	0.409 (0.324, 0.518) μg/mL	0.238 (0.162, 0.349) μg/mL	–	–	–	–	–	–	81.090	0.0252
